Experimental data reported in patent US9096591B2, “Tetracyclic compounds” (Medivation Technologies, Inc., priority 2007, dated 2015).
Where “and” joins values, the source holds several entries; their conditions need not be identical. Equal entries are not always repeated.

Key:
[1] = system: AMPA receptors; assay: AMPA-receptor activity: kainic acid-induced currents in Purkinje cells (patch-clamp); assay type: cell-based, rat; conditions: mean±SEM, control=100%
Procedure: The analysis of effects of the testing compounds on AMPA receptors was carried out using an electrophysiological patch-clamp method in whole cell configuration (Hamill et al., 1980) of the Purkinje cell fresh isolated from the cerebellum of juvenile rats (12-15 days). The isolation was carried out using a modified method (Kaneda et al., 1988) in which cerebral 400-600 μm sections were incubated for 60 min in the temperature controlled chamber in 10 mL of buffer solution (150 mM NaCl, 5 mM KCl, 2 mM CaCl2, 2 mM MgSO4.7H2O, 10 mM HEPES, 15 mM glucose, pH 7.42). The incubation solution was exchanged with the incubation buffer with pronase (2 mg/mL) and collagenase (1 mg/mL) for 70 min. After a 20 min wash with the original buffer, all sections were placed into the Petri dish and were separated using a Pasteur pipette. All solutions were constantly aerated with 100% O2 at 34° C. The composition of extracellular saline was: 150 mM NaCl, 5 mM KCl, 2.6 mM CaCl2, 2 mM MgSO4.7H2O, 10 mM HEPES, 15 mM glucose, pH 7.36. The transmembrane current was induced as a result of the activation of AMPA receptors by a superfusion with the agonist solution (kainic acid). The currents were measured using borosilicate microelectrodes (resistance […]) filled with 100 mM KCl, 11 mM EGTA, 1 mM CaCl2, 1 mM MgCl2, 10 mM HEPES, 5 mM ATP, pH 7.2. The currents were registered using EPC-9 (HEKA, Germany) and recorded with Pulse software package which was also purchased from HEKA. The analysis of observations was carried out using Pulsefit (HEKA, Germany) and the statistical significance was analyzed using a Student's T-test criteria. Data are presented as mean±SEM in % of control values.
Compounds of the invention were tested in 3-5 neurons. Every concentration of compound was repeated three-four times in every neuron. Data are presented as mean±SEM in % of Control values (Table 13+14, FIGS. 8-12). Control value=100%.

[2] = system: synaptosomes of cortex of rat brain; assay: Glutamate-induced 45Ca2+ uptake into synaptosomes; assay type: biochemical, Wistar rats; conditions: for % Ca of control (control-100%), glutamate-induced 45Ca2+ uptake into synaptosomes: rat cortex synaptosomes
Method in brief: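 Cortical synaptosomes (P2 fraction) from 9-10-day-old Wistar rats, ~1.5-2 mg/ml protein in HEPES-buffered saline with glucose, pH 7.4, stimulated 5 min with 200 μM glutamate at 37° C. 45Ca2+ uptake measured by filtration and scintillation counting; specific uptake with compound expressed as percentage of glutamate-induced uptake, each corrected for unstimulated uptake.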

[3] = system: mice; assay: recognition test of new location of a known object (spatial memory); assay type: in vivo; conditions: for overall effect on memory (in words): doses 0.05-1 mg/kg

SMILES	kainic acid-induced currents in Purkinje cells, % of Control values ([1]; compound 10^−5 M) [%]	kainic acid-induced currents in Purkinje cells, % of Control values ([1]; compound 10^−6 M) [%]	kainic acid-induced currents in Purkinje cells, % of Control values ([1]; compound 10^−7 M) [%]	kainic acid-induced currents in Purkinje cells, % of Control values ([1]; compound 10^−8 M) [%]	kainic acid-induced currents in Purkinje cells, % of Control values ([1]; compound 10^−9 M) [%]	glutamate-induced 45Ca2+ uptake into synaptosomes of rat cortex, % Ca of control (control-100%) ([2]; C 100 μM) [%]	% Ca of control (control-100%), glutamate-induced 45Ca2+ uptake into synaptosomes ([2]; compound 0.1 μM) [%]	% Ca of control (control-100%), glutamate-induced 45Ca2+ uptake into synaptosomes ([2]; compound 0.5 μM) [%]	% Ca of control (control-100%), glutamate-induced 45Ca2+ uptake into synaptosomes ([2]; compound 1 μM) [%]	% Ca of control (control-100%), glutamate-induced 45Ca2+ uptake into synaptosomes ([2]; compound 5 μM) [%]	% Ca of control (control-100%), glutamate-induced 45Ca2+ uptake into synaptosomes ([2]; compound 10 μM) [%]	% Ca of control (control-100%), glutamate-induced 45Ca2+ uptake into synaptosomes ([2]; compound 50 μM) [%]	% Ca of control (control-100%), glutamate-induced 45Ca2+ uptake into synaptosomes ([2]; compound 100 μM) [%]	Influence on memory in the test recognition new localization of known object ([3]; Dose of Compound 0.05 mg/kg)	Influence on memory in the test recognition new localization of known object ([3]; Dose of Compound 0.1 mg/kg)	Influence on memory in the test recognition new localization of known object ([3]; Dose of Compound 0.5 mg/kg)	Influence on memory in the test recognition new localization of known object ([3]; Dose of Compound 1.0 mg/kg)	effect of the dose on exploration time / memory (in words) ([3]; mice, dose 0.05 mg/kg)	overall effect on memory (in words) ([3]; mice)	kainic acid-induced currents in Purkinje cells, % of Control values ([1]; compound 3 × 10^−5 M) [%]	other results
Cc1ccc2c(c1)c1c(n2CCc2nc(-c3ccccc3)cs2)CCN(C)C1 [Compound C1-5]	126 ± 18	64 ± 23	70 ± 23	62 ± 12	64 ± 8	130	96.3 ± 5.6	77.5 ± 0.8	94 ± 3.4	96 ± 1.5	117.2 ± 1.3	115.4 ± 4.8	30.1 ± 7.4	−	+	−	+	no effect	stimulating effect on memory		inhibition of glutamate-induced 45Ca2+ uptake into synaptosomes ([2]; 0.5 μM): about 22.5%; activity on memory compared with dimebon (in words) ([3]; comparison of effective doses): at a level dimebon; time exploring the object in a new location, % of the total time ([3]; mice, dose 0.1 mg/kg): 57.9±7.5%; time exploring the object in the known position, % of the total time ([3]; mice, dose 0.1 mg/kg): 42.1±7.5%; effect of the dose on exploration time / memory (in words) ([3]; mice, dose 0.5 mg/kg): disappearance of the stimulating effect on memory; time exploring the object in a new location, % of the total time ([3]; mice, dose 1 mg/kg): 57.4±8.4%; time exploring the object in the known position, % of the total time ([3]; mice, dose 1 mg/kg): 42.6±8.4%
COc1ccc2c(c1)c1c(n2CCc2nc(-c3ccccc3)cs2)CCN(C)C1 [Compound C1-6]	135 ± 1	146 ± 12	116 ± 7	101 ± 4	100 ± 3															130 ± 6	
CN1CCc2c(c3cc(F)ccc3n2CCc2nc(-c3ccccc3)cs2)C1 [Compound C1-7]						139.8	77.5 ± 2.4	72.7 ± 0.3	98.6 ± 2.4	131.8 ± 8.8	134.5 ± 9.2	126.7 ± 7.7	139.8 ± 6.5								concentration at which glutamate-induced 45Ca2+ uptake into synaptosomes was increased [2]: 5 to 100 µM; inhibition of glutamate-induced 45Ca2+ uptake into synaptosomes ([2]; 0.1-0.5 μM): ~27.3%
CN1CCc2c(c3ccccc3n2CCc2noc(-c3ccccc3)n2)C1 [Compound C4-1]	97 ± 4	110 ± 5	115 ± 3	147 ± 11	125 ± 6	115.9 ± 8.8								−	+	−	−				inhibition of glutamate-induced 45Ca2+ uptake into synaptosomes ([2]; 0.1-0.5 μM): about 20%; glutamate-induced 45Ca2+ uptake into synaptosomes of rat cortex, % Ca of control (control-100%) ([2]; C 0.1 μM): 79.4 ± 6.1%; glutamate-induced 45Ca2+ uptake into synaptosomes of rat cortex, % Ca of control (control-100%) ([2]; C 0.5 μM): 79.2 ± 10%; glutamate-induced 45Ca2+ uptake into synaptosomes of rat cortex, % Ca of control (control-100%) ([2]; C 1.0 μM): 106.1 ± 7.9%; glutamate-induced 45Ca2+ uptake into synaptosomes of rat cortex, % Ca of control (control-100%) ([2]; C 5.0 μM): 128% and 128 ± 4.5%; glutamate-induced 45Ca2+ uptake into synaptosomes of rat cortex, % Ca of control (control-100%) ([2]; C 10 μM): 107.6 ± 3.5%; glutamate-induced 45Ca2+ uptake into synaptosomes of rat cortex, % Ca of control (control-100%) ([2]; C 25 μM): 114.3 ± 0.5%; glutamate-induced 45Ca2+ uptake into synaptosomes of rat cortex, % Ca of control (control-100%) ([2]; C 50 μM): 110.1 ± 5.1%
Cc1ccc2c(c1)c1c(n2CCc2noc(-c3ccccc3)n2)CCN(C)C1 [Compound C4-4]	150 ± 26	142 ± 11	147 ± 15	129 ± 5	100	125.3 ± 11.2								−	+	+	+	no effect	activating effect on memory	150 ± 20	concentration at which glutamate-induced 45Ca2+ uptake into synaptosomes was increased [2]: 50 to 100 µM; concentration at which glutamate-induced 45Ca2+ uptake into synaptosomes was inhibited [2]: 0.5 µM; inhibition of glutamate-induced 45Ca2+ uptake into synaptosomes ([2]; 1 μM (maximal inhibition)): 20.5%; glutamate-induced 45Ca2+ uptake into synaptosomes of rat cortex, % Ca of control (control-100%) ([2]; C 0.1 μM): 111.2 ± 9.2%; glutamate-induced 45Ca2+ uptake into synaptosomes of rat cortex, % Ca of control (control-100%) ([2]; C 0.5 μM): 81.8 ± 14%; glutamate-induced 45Ca2+ uptake into synaptosomes of rat cortex, % Ca of control (control-100%) ([2]; C 1.0 μM): 79.5 ± 11.1%; glutamate-induced 45Ca2+ uptake into synaptosomes of rat cortex, % Ca of control (control-100%) ([2]; C 5.0 μM): 97.9 ± 4.3%; glutamate-induced 45Ca2+ uptake into synaptosomes of rat cortex, % Ca of control (control-100%) ([2]; C 10 μM): 99.9 ± 11.7%; glutamate-induced 45Ca2+ uptake into synaptosomes of rat cortex, % Ca of control (control-100%) ([2]; C 25 μM): 93.6 ± 15.7%; glutamate-induced 45Ca2+ uptake into synaptosomes of rat cortex, % Ca of control (control-100%) ([2]; C 50 μM): 137.5 ± 5.4%; time after training for which the activating effect on memory is preserved ([3]; mice): about 48 hours; time exploring the object in a new location, % of the total time ([3]; mice, dose 0.1 mg/kg): 58.5±9.6%; time exploring the object in the known position, % of the total time ([3]; mice, dose 0.1 mg/kg): 41.5±9.6%; time exploring the object in a new location, % of the total time ([3]; mice, dose 0.5 mg/kg): 59.1±4.2%; time exploring the object in the known position, % of the total time ([3]; mice, dose 0.5 mg/kg): 40.9±4.2%
CN1CCc2c(c3cc(Cl)ccc3n2CCc2noc(-c3ccccc3)n2)C1 [Compound C4-6]	152 ± 30	140 ± 25	120 ± 20	100 ± 3		152.2	103.6 ± 11.4	96.9 ± 11.9	105.5 ± 5.2	86.5 ± 6.1	88.6 ± 2.8	122.1 ± 8.5	152.0 ± 6.7	−	−	+	+	not effective	stimulated memory	149 ± 33	concentration at which glutamate-induced 45Ca2+ uptake into synaptosomes was increased [2]: 50 to 100 µM; concentration at which glutamate-induced 45Ca2+ uptake into synaptosomes was inhibited [2]: 5 to 10 µM; activity on memory: times weaker than dimebon ([3]; comparison of effective doses): approximately 5 times; effect of the dose on exploration time / memory (in words) ([3]; mice, dose 0.1 mg/kg): not effective; time exploring the object in a new location, % of the total time ([3]; mice, dose 0.5 mg/kg): 61.0±4.8%; time exploring the object in the known position, % of the total time ([3]; mice, dose 0.5 mg/kg): 39.0±4.8%; time exploring the object in a new location, % of the total time ([3]; mice, dose 1 mg/kg): 56.3±7.7%; time exploring the object in the known position, % of the total time ([3]; mice, dose 1 mg/kg): 43.7±7.7%
